Read-outs that look alike come from different tables or passages of the source. Each block holds one molecule with its values, some of them ahead of it.
Columns and labels:
[1] = Tissue distribution study using quantitative whole-body autoradiography (QWBA); format: in vivo, Long-Evans rats and Sprague-Dawley rats; conditions: single oral 50 mg/100 µCi/kg
Experimental: This test utilized a total of 8 male Long Evans (LE) rats, randomly designated as Gt1M01 to Gt1M08; and 4 Sprague-Dawley (SD) rats, with an equal number of males and females, randomly designated as Gt2M01 to Gt2M02 and Gt2F01 to Gt2F02. Each rat received a single oral dose of 50 mg/100 µCi/kg of [^14C]-Compound A via gavage. SD rats were euthanized at 4 hours and 72 hours post-dose (with the 72-hour rats serving as backups); LE rats were euthanized at 0.5 hours, 4 hours, 24 hours, 72 hours, 168 hours, 336 hours, 504 hours, and 840 hours post-dose (with the 504-hour and 840-hour rats serving as backups). According to the rat sequence numbers, one male and one female SD rat and one male LE rat were transferred to an induction chamber, euthanized with an overdose of carbon dioxide, and about 4 mL of whole blood was collected via cardiac puncture. Immediately after blood collection, the carcasses were immersed in a dry ice-hexane bath for freezing and fixation.
Plasma samples were obtained by low-temperature centrifugation of whole blood. After homogenization, aliquots of each plasma sample were mixed directly with scintillation fluid, and the radioactivity was measured using a liquid scintillation counter (LSC). Frozen carcasses were sectioned, dried, and exposed/developed to determine total radioactivity in tissues/regions (including gastrointestinal contents). Pharmacokinetic parameters for total radioactivity in plasma and tissues were calculated using a non-compartmental model with WinNonLin software (version 8.3, Certara). After development of sections at each time point, 46 tissues/regions (including gastrointestinal contents) were analyzed for LE rats, and 45 tissues/regions (including gastrointestinal contents) were analyzed for SD rats. The radioactivity concentrations in unanalyzed regions were all lower than the lowest concentration in the analyzed tissues or regions.

[2] = tested on: Ba/F3 BCR-ABL1 Q252H/T315I; experiment: Cell growth inhibition activity test, single agents and combinations (CellTiter-Glo, Chou-Talalay); format: cell-based, mouse; conditions: for IC50: Mus musculus, BaF3, 72 h
Experimental: (§1) A series of cell lines expressing BCR-ABL1 single mutations and compound mutations were constructed based on the Ba/F3 mouse pro-B cell line.
(§2) This assay utilized the CellTiter-Glo (CTG) kit provided by Promega, which is a homogeneous method for cell viability detection, measuring the viability of cultured cells by quantifying ATP. Cells were seeded in 96-well plates and treated with different concentrations of test substances. […] At the end of the treatment, CTG reagent (CellTiter-Glo kit) was added according to the manufacturer's instructions to detect cell viability values. Plates were read on a microplate reader (Biotek cytation 3.0). IC50 values were calculated using GraphPad Prism 7.0 software.

[3] = tested on: Ba/F3 BCR-ABL1 T315M; experiment: as above; format: cell-based, mouse
Experimental: as §1, §2

[4] = tested on: Ba/F3 BCR-ABL1 Y253H/T315I; experiment: as above; format: cell-based, mouse; conditions: Mus musculus; for IC90: Fig. 3
Experimental: as §1, §2

[5] = tested on: Ba/F3 BCR-ABL1 E255V/T315I; experiment: as above; format: cell-based; conditions: Mus musculus, BaF3, 72 h
Experimental: as §1, §2

[6] = clinical dose of 45 mg QD; cited from earlier work

Structure (SMILES): O=C(Nc1ccc(OC(F)(F)Cl)cc1)c1cnc(N2CC[C@@H](F)C2)c(-c2cnccn2)c1 [[14C]-Compound A]
Total Radioactivity, Plasma ([1]; Female SD rats, 4 hrs): 15320 ng Eq./g
Total Radioactivity, Whole brain ([1]; Female SD rats, 4 hrs): 9800 ng Eq./g
Total Radioactivity, Plasma ([1]; Male LE rats, 0.5 hrs): 7131 ng Eq./g
Total Radioactivity, Whole brain ([1]; Male LE rats, 0.5 hrs): 4885 ng Eq./g
Total Radioactivity, Plasma ([1]; Male LE rats, 4 hrs): 11981 ng Eq./g
Total Radioactivity, Whole brain ([1]; Male LE rats, 4 hrs): 6950 ng Eq./g
Total Radioactivity, Plasma ([1]; Male SD rats, 4 hrs): 10656 ng Eq./g
Total Radioactivity, Whole brain ([1]; Male SD rats, 4 hrs): 6400 ng Eq./g

Structure (SMILES): COc1cc(Nc2c(C#N)cnc3cc(OCCCN4CCN(C)CC4)c(OC)cc23)c(Cl)cc1Cl [bosutinib]
IC50 [2]: 3130 ± 9.9 nM
IC50 ([3]; Mus musculus, BaF3, 72 h): 3970 ± 151 nM
IC50 ([4]; BaF3, 72 h): 3715 ± 9.9 nM
IC50 [5]: 3920 ± 1380 nM

Structure (SMILES): Cc1ccc(C(=O)Nc2ccc(CN3CCN(C)CC3)c(C(F)(F)F)c2)cc1C#Cc1cnc2cccnn12 [ponatinib]
inhibition of cell viability ([2]; single-agent ponatinib at 60 nM and 48 nM, Fig. 5): could be inhibited
anti-proliferative effect ([3]; single-agent ponatinib, Fig. 6): no anti-proliferative effect
IC90 ([4]; BaF3, read-out: IC90 value of ponatinib, ponatinib in combination with asciminib): 165 nM
IC90 ([4]; BaF3, read-out: IC90 value of ponatinib, ponatinib in combination with compound A): 60.9 nM
minimum plasma concentration at steady state (Cssmin) [6]: 64.3 nM

Next, values leading:

IC50 ([4]; BaF3, 72 h, single agent, Y253H/T315I, 72 hours, read-out: IC50): 8420 ± 245 nM
Structure (SMILES): Cc1ncc(NC(=O)c2ccc(CN3CCN(C)CC3)c(C(F)(F)F)c2)cc1Nc1nccc(-c2cccnc2)n1 [flumatinib]

IC50 [2]: 7.7 ± 0.01 nM
IC50 ([4]; BaF3, 72 h, read-out: IC50^I1): 36.9 nM
IC50 ([4]; BaF3, read-out: IC50^I2): 5.44 nM
IC50 [5]: 25.8 ± 2.9 nM
Structure (SMILES): Cc1ccc(C(=O)Nc2ccc(CN3CCN(C)CC3)c(C(F)(F)F)c2)cc1C#Cc1cnc2[nH]ncc2c1 [olverembatinib]
